Data from patent US4425355A, “Substituted acyl derivatives of chair form of octahydro-1H-indole-2-carboxylic acids” (Warner-Lambert Company, priority 1981, dated 1984).
Structures can show the parent of a compound that is named as a salt.

These molecules were tested against T1, Angiotensin converting enzyme (ACE) (Cavia porcellus, UniProt H0UWL7) (assay: In vitro ACE Assay: angiotensin converting enzyme inhibitory activity (guinea pig serum ACE, 3H-hippuryl-glycyl-glycine substrate)). Conditions: 10 min preincubation, 60 minute incubation at 37° C., read-out: IC50 (Activity of Compounds of Formula V).
T1 construct: ACE from guinea pig serum and the test compounds are preincubated for 10 minutes; from tissue; host or cells: guinea pig serum
T1 sequence (H0UWL7 33-1302): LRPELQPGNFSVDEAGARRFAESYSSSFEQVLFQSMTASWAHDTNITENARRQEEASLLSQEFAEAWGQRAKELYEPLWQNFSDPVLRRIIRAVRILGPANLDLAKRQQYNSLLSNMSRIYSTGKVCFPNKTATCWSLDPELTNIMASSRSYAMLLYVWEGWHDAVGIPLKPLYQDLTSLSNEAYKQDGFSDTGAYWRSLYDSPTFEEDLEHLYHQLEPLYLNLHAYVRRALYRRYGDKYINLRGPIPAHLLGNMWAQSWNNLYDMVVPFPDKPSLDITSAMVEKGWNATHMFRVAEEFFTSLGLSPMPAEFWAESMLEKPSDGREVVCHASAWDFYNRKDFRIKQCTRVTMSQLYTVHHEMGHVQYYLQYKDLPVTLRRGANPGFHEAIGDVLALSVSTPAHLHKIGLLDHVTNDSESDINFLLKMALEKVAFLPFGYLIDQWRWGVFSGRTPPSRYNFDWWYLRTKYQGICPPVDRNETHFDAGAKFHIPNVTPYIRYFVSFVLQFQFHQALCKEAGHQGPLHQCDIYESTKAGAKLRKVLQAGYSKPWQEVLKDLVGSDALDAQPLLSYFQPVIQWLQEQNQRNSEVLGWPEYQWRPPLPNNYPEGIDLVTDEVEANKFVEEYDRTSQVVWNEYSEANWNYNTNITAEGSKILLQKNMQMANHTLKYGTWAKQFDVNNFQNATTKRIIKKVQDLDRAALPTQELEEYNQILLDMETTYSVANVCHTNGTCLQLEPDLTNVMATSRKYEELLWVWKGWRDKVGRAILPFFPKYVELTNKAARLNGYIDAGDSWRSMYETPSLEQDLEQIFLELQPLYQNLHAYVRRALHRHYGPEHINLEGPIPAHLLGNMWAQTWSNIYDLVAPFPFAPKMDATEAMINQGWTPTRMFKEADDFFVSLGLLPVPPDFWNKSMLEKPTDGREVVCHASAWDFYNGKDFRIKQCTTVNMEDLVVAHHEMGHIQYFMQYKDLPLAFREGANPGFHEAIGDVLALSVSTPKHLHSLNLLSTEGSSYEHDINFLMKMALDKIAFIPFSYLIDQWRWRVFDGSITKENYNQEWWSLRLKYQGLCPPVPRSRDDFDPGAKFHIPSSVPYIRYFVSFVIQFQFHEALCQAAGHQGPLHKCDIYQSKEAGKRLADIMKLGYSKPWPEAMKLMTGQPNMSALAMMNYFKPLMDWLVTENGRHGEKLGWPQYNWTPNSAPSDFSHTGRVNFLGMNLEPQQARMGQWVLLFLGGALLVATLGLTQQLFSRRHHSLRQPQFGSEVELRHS
Format: biochemical
Method: In vitro ACE Assay: Angiotensin converting enzyme (ACE) inhibitory activity is determined by assaying guinea pig serum ACE in the presence and absence of the test compound. ACE from guinea pig serum and the test compounds are preincubated for 10 minutes before the addition of the labelled substrate ^3 H-hippuryl-glycyl-glycine. […] ACE cleaves the hippuryl-glycyl bond to form the dipeptide glycyl-glycine and ^3 H-hippuric acid. The ^3 H-hippuric acid is then extracted with ethyl acetate and the ACE inhibition of a given sample calculated on the basis of the ^3 H-hippuric acid generated.

SMILES | IC50 [nM]
CCOC(=O)[C@@H]1C[C@@H]2CCCC[C@@H]2N1C(=O)C(C)CSC(C)=O (relative stereo) [V: R=C2 H5, R1=CH3, R2=CH3 CO, --, Ethyl (2α,3aβ,7aβ)-Octahydro-1-[3-(acetylthio)-2-methylpropanoyl]-1H-indole-2-carboxylate] | 6700
CC(CSC(=O)C(C)(C)C)C(=O)N1[C@H](C(=O)O)C[C@@H]2CCCC[C@@H]21 (single isomer, unassigned) [V: R=H, R1=CH3, R2=(CH3)3 CCO, dl, A, (2α,3aβ,7aβ)-Octahydro-1-[3-(2,2-dimethylpropanoylthio)-2-methylpropanoyl]-1H-indole-2-carboxylic Acid] | 170
CCC(=O)SCC(C)C(=O)N1[C@H](C(=O)O)C[C@@H]2CCCC[C@@H]21 (single isomer, unassigned; diastereomer a) [V: R=H, R1=CH3, R2=CH3 CH2 CO, dl, A, (2α,3aβ,7aβ)-Octahydro-1-[3-(propanoylthio)-2-methylpropanoyl]-1H-indole-2-carboxylic Acid, (Diastereomer A)] | 52
CC(=O)SCC(C)C(=O)N1[C@H](C(=O)O)C[C@@H]2CCCC[C@@H]21 (single isomer, unassigned; diastereomer a) [V: R=H, R1=CH3, R2=CH3 CO, A, (2α,3aβ,7aβ)-Octahydro-1-[3-(acetylthio)-2-methyl-propanoyl]-1H-indole-2-carboxylic Acid, Diastereomer A] | 160
CC(=O)SCC(C)C(=O)N1[C@H](C(=O)O)C[C@@H]2CCCC[C@@H]21 (single isomer, unassigned; diastereomer b) [V: R=H, R1=CH3, R2=CH3 CO, dl, B, (2α,3aβ,7aβ)-Octahydro-1-[3-(acetylthio)-2-methylpropanoyl]-1H-indole-2-carboxylic Acid, Diastereomer B.] | 1100

Further lines, results first:

IC50 [nM] | SMILES
16 | CC(CS)C(=O)N1[C@H](C(=O)O)C[C@@H]2CCCC[C@@H]21 (relative stereo) [V: R=H, R1=CH3, R2=H, --, (2α,3aβ,7aβ)-Octahydro-1-(3-mercapto-2-methylpropanoyl)-1H-indole-2-carboxylic acid]
480 | CC(=O)SCCC(=O)N1[C@H](C(=O)O)C[C@@H]2CCCC[C@@H]21 (relative stereo) [V: R=H, R1=H, R2=CH3 CO, l, (1)-(2α,3aβ,7aβ)-Octahydro-1-[3-(acetylthio)-propanoyl]-1H-indole-2-carboxylic Acid]
6.4 | O=C(O)[C@@H]1C[C@@H]2CCCC[C@@H]2N1C(=O)CCS (relative stereo) [V: R=H, R1=H, R2=H, l, (1)-(2α,3aβ,7aβ)-Octahydro-1-(3-mercaptopropanoyl)-1H-indole-2-carboxylic Acid]
7 | CC(CS)C(=O)N1[C@H](C(=O)O)C[C@@H]2CCCC[C@@H]21 (single isomer, unassigned; diastereomer a) [V: R=H, R1=CH3, R2=H, dl, A, (2α,3aβ,7aβ)-Octahydro-1-(3-mercapto-2-methylpropanoyl)-1H-indole-2-carboxylic Acid, Diastereomer A]
960 | CC(CSC(=O)c1ccccc1)C(=O)N1[C@H](C(=O)O)C[C@@H]2CCCC[C@@H]21 (single isomer, unassigned; diastereomer a) [V: R=H, R1=CH3, R2=PhCO, dl, A, (2α,3aβ,7aβ)-Octahydro-1-[3-(benzoylthio)-2-methylpropaoyl]-1H-indole-2-carboxylic Acid (Diastereomer A) t-Butylamine Salt]
